According to patent publication US8940943B2, “Cosmetic preparations” (Cognis IP Management GmbH, priority 2010, dated 2015):

What was measured:
human skin [1] = assay: occlusive epicutaneous 24 h patch test (skin compatibility)
Protocol: The di(2-propylheptyl)ether obtained according to production example 2 was compared in an occlusive epicutaneous 24 h patch test against the commercially available di-n-octyl ether. […] 24 after application the patch was removed, after a further 6 hours the first visual assessment was carried out, further assessments were carried out 24, 48 and 72 hours after the patch was removed.
The assessment was based on a scale from 0 (no reaction) to 4 (strong reaction) in the categories: erythema formation, edema formation, formation of scales (=squamation) and formation of cracks (=fissuration). A so-called total irritation score RSS value was found from the values obtained.

human skin [2] = assay: in-vivo patch test, 24 hours on human skin, skin reddening or irritation; conditions: compared to diethylhexyl ether, water and surfactant solution as negative and positive standards
Protocol: In an in-vivo patch test, the test substances are applied on human skin and left there for 24 hours. Then an assessment is made with respect to possible occurrence of skin reddening or irritation. As comparison, in each case water and a surfactant solution are tested as negative and positive standards.

## CCCCCC(CCC)COCC(CCC)CCCCC (stereo not shown) [Di(2-propylheptyl)ether]
Human skin [1]; human, in vivo, 24 h
  total irritation score RSS: 3.62
Human skin [2]
  skin compatibility: improved skin compatibility

## CCCCCCCCOCCCCCCCC [Di-n-alkyl ether (Cetiol ® OE), di-n-octyl ether]
Human skin [1]; human, in vivo, 24 h
  total irritation score RSS: 7.1

## CCCCCCCCCCCCOS(=O)(=O)[O-].[Na+] [Positive control, sodium dodecyl sulfate]
Human skin [1]; 22 test subjects, applied on back, occlusive 24 h patch (Finn Chambers), assessed 6, 24, 48 and 72 h after patch removal, scale 0-4 for erythema, edema, squamation, fissuration
  total irritation score RSS: 7.95
